From patent US5475114A, “Pyrazolotriazole derivatives” (Yamanouchi Pharmaceutical Co., Ltd., priority 1991, dated 1995)
Structures can show the parent of a compound that is named as a salt.

What was measured:
[1] = test system: AII receptor; test: in vivo: inhibitory effect on AII-caused pressor reaction in a spinal cord-broken rat; conditions: dose which decreases 30 mm Hg of blood pressure after AII administration (100 ng/kg/min continuous iv)
Protocol: The AII receptor-blocking activity of the compound of the present invention was measured based on its antagonistic effect (in vitro) on AII contraction of an excised rabbit aorta and its inhibitory effect (in vivo) on AII-caused pressor reaction in a spinal cord-broken rat. In vivo test: An in vivo test was carried out by inserting cannulae into an aorta and a vein of a spinal cord-broken rat under artificial respiration. […] Since a drug having AII receptor-blocking activity inhibits the AII-caused continuous blood pressure increase in a dose-dependent manner, the AII antagonistic function of the test drug was examined based on the decreasing width of blood pressure after administration of the test drug.

[2] = molecular target: T1, AII receptor (Oryctolagus cuniculus, UniProt P34976); test: in vitro: antagonistic effect on AII contraction of an excised rabbit aorta (spiral strip); assay type: cell-based; conditions: for Kb: negative log of concentration required to shift AII dose-response curve to two times higher concentration, read-out: in vitro (pA2 value) (converted); for IC50: negative log of concentration required to inhibit 50% of the maximum AII contraction, read-out: in vitro (pD2 ' value) (converted)
T1 construct: A portion of rabbit aorta was excised to prepare a spiral strip specimen; from tissue; host or cells: excised rabbit aorta, spiral strip
T1 sequence (P34976 1-359): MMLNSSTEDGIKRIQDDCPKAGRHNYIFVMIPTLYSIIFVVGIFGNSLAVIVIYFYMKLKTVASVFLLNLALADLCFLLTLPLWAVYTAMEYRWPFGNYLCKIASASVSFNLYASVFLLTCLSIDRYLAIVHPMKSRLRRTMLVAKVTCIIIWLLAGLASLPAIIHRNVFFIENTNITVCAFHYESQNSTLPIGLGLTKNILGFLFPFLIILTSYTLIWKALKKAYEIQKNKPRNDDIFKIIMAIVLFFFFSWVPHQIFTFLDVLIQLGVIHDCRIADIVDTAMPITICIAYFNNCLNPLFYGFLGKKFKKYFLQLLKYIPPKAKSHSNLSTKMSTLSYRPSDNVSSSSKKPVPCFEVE
Protocol: The AII receptor-blocking activity of the compound of the present invention was measured based on its antagonistic effect (in vitro) on AII contraction of an excised rabbit aorta and its inhibitory effect (in vivo) on AII-caused pressor reaction in a spinal cord-broken rat.
A portion of rabbit aorta was excised to prepare a spiral strip specimen which was subsequently hung in Krebs-Hensseleit solution. This spiral strip specimen causes a dose-dependent contraction when AII is added to the Krebs-Hensseleit solution. Since a drug having AII receptor-blocking activity causes shifting of the dose-response curve of the AII-based contraction to the high concentration side or reduces maximum contraction by AII, a shifted width of the dose-response curve before and after the addition of each test drug or a maximum contraction inhibiting ratio was calculated.

Row | SMILES | Kb [2] [nM] | IC50 [2] [nM] | in vivo (IC30 mmHg (mg/kg, iv)) [1] [mg/kg]
1 | CCc1nc2c(CC)c(COC)n(Cc3ccc(-c4ccccc4-c4nnn[nH]4)cc3)n2n1 [Example 95, 2,7-diethyl-6-methoxymethyl-5-[[2'-(tetrazol-5-yl)biphenyl-4-yl]methyl]-5H-pyrazolo[1,5-b][1,2,4]triazole] | 1.41 |  | 0.06
2 | CCc1nc2c(C(C)C)cn(Cc3ccc(-c4ccccc4-c4nnn[nH]4)cc3)n2n1 [Example 57, 2-ethyl-7-isopropyl-5-[[2'-(tetrazol-5-yl)biphenyl-4-yl]methyl]-5H-pyrazolo[1,5-b][1,2,4]triazole] | 3.02 |  | 0.04
3 | CCc1nc2c(CC)cn(Cc3ccc(-c4ccccc4-c4nnn[nH]4)cc3)n2n1 [Example 52, 2,7-diethyl-5-[[2'-(tetrazol-5-yl)biphenyl-4-yl]methyl]-5H-pyrazolo[1,5-b][1,2,4]triazole] | 2.24 |  | 0.025
4 | CCc1cn(Cc2ccc(-c3ccccc3-c3nnn[nH]3)cc2)n2nc(C)nc12 [Example 53, 7-ethyl-2-methyl-5-[[2'-(tetrazol-5-yl)biphenyl-4-yl]methyl]-5H-pyrazolo[1,5-b][1,2,4]triazole] | 3.16 |  | 0.01
5 | CCc1nc2c(CC)c(C=O)n(Cc3ccc(-c4ccccc4-c4nn[nH]n4)cc3)n2n1 [Example 96, 2,7-diethyl-5-[[2'-(tetrazol-5-yl)biphenyl-4-yl]methyl]-5H-pyrazolo[1,5-b][1,2,4]triazole-6-carboxyaldehyde] | 0.692 |  | 0.02
6 | CCCCc1nc(Cl)c(CO)n1Cc1ccc(-c2ccccc2-c2nn[nH]n2)cc1 [Dup 753, reference compound] |  |  | 0.1

Further lines, with some results ahead:

Row | Kb [2] [nM] | IC50 [2] [nM] | SMILES | in vivo (IC30 mmHg (mg/kg, iv)) [1] [mg/kg]
7 | 1.55 |  | CCc1nc2c(CC)cn(Cc3ccc(-c4ccccc4-c4nn[nH]n4)cc3)n2n1 [Example 100, 2,7-diethyl-5-[[2'-(tetrazol-5-yl)biphenyl-4-yl]methyl]-5H-pyrazolo[1,5-b][1,2,4]triazole potassium salt] | 
8 |  | 0.49 | CCc1nc2c(CC)c(C(=O)O)n(Cc3ccc(-c4ccccc4-c4nn[nH]n4)cc3)n2n1 [Example 99, 2,7-diethyl-5-[[2'-(tetrazol-5-yl)biphenyl-4-yl]methyl]-5H-pyrazolo[1,5-b][1,2,4]'triazole-6-carbonic acid] | 
9 | 0.955 |  | CCc1nc2c(CC)c(CO)n(Cc3ccc(-c4ccccc4-c4nn[nH]n4)cc3)n2n1 [Example 98] | 0.02
10 | 0.724 |  | CCc1nc2c(CC)c(C(=O)OC)n(Cc3ccc(-c4ccccc4-c4nn[nH]n4)cc3)n2n1 [Example 102, methyl 2,7-diethyl-5-[[2'-(tetrazol-5-yl)biphenyl-4-yl]methyl]-5H-pyrazolo[1,5-b][1,2,4]triazole-6-carboxylate sodium salt] | 
11 |  | 0.933 | CCOC(=O)OC(C)OC(=O)c1c(CC)c2nc(CC)nn2n1Cc1ccc(-c2ccccc2-c2nnn[nH]2)cc1 (stereo not drawn) [Example 105, 1-ethoxycarbonyloxyethyl 2,7-diethyl-5-[[2'-(tetrazol-5-yl)biphenyl-4-yl]methyl]-5H-pyrazolo[1,5-b][1,2,4]triazole-6-carboxylate] | 
12 | 0.562 |  | CCOC(=O)c1c(CC)c2nc(CC)nn2n1Cc1ccc(-c2ccccc2-c2nnn[nH]2)cc1 [Example 101, ethyl 2,7-diethyl-5-[[2'-(tetrazol-5-yl)biphenyl-4-yl]methyl]-5H-pyrazolo[1,5-b][1,2,4] triazole-6-carboxylate] | 
